According to patent US20260226006A1, “INDOLE COMPOUND, PREPARATION METHOD THEREFOR AND USE THEREOF” (SUZHOU MERNA THERAPEUTICS CO. LTD, priority 2023, published 2026):

Assays:
[1] = tested on: skin of hind limb toes of mice; assay: Chemotherapeutic drug-induced mouse models with hand-foot syndrome (Example 23); format: in vivo, ICR mice; details: compound 2b 3% ointment topical or nicotinamide 100 mg/kg oral; for expression level of cytokine IL-8 in skin tissues of hind limb toes: capecitabine model; for thickening of the epidermal layer and the stratum corneum in the skin tissues (pathological staining) / swelling of the toes caused by the modeling drugs: capecitabine or docetaxel model; for swelling of the toes caused by the modeling drugs: once daily 16 days; for expression level of cytokine IL-6 in skin tissues of hind limb toes: docetaxel model
From the text: After adaptive feeding for 7 days, SPF-grade ICR mice (male, 5-6 weeks old, with a body weight of approximately 35 g) were randomly divided into groups, including a blank control group (6 mice), a capecitabine modeling group (6 mice), a docetaxel modeling group (6 mice), a capecitabine+compound 2b group (6 mice), a docetaxel+compound 2b group (6 mice), a capecitabine+nicotinamide group (6 mice), and a docetaxel+nicotinamide group (6 mice). The groups were respectively administered corresponding modeling drugs by oral gavage (capecitabine at 200 mg/kg and docetaxel at 25 mg/kg) once daily, and the blank control group was administered an equivalent volume of normal saline. After administration with the chemotherapeutic drugs for 2 weeks, the compound ointments (at a compound content of 3%) used in Example 22 were respectively applied topically in the groups, or nicotinamide was orally administered (100 mg/kg) once daily continuously for 16 days.
Measurement of the degree of swelling of toes: The degree of swelling of hind limb toes of the mice was measured using a toe swelling tester (KW-7C, Nanjing Calvin Biotechnology Co., Ltd.) before administration with the modeling drugs, after administration with the modeling drugs for 2 weeks, and before sacrifice, respectively. Before measurement, ankle joints of hind paws of the mice were marked at same positions before administration, after administration for 2 weeks, and before sacrifice. During measurement, water was properly located at the same level as the marked positions, and numerical values were recorded after becoming stable.
Pathological staining of skin tissues: Skin tissue samples were selected from hind limb toes of the mice and placed in 4% paraformaldehyde for fixation at room temperature for 4 hours. Then, the tissues were taken out and rinsed with running water for several hours. The samples were subjected to dehydration treatment with 70%, 80%, and 90% ethanol solutions, followed by treatment with a mixed solution of equal amounts of absolute alcohol and xylene for 15 minutes, and then permeabilized twice with a xylene solution for 15 minutes each time until the samples became transparent. The samples were placed in a mixture of half xylene and half paraffin for soaking for 15 minutes, and then, paraffin I and paraffin II were added for wax penetration for one hour, respectively. After embedding with paraffin, the samples were sectioned, baked, dewaxed, and hydrated. Then, the hydrated sections were placed in a hematoxylin solution (ZSGB-BIO, article No. 23041001) for staining for 3 minutes, and a differentiation solution of hydrochloric acid in ethanol was added for differentiation for 15 seconds. After rinsing with water, a Scott bluing solution (Servicebio, article No. 20230801) was added for bluing for 15 seconds. After rinsing with running water, the sections were stained with an eosin solution (Solarbio, article No. 33535) for 3 minutes, rinsed with running water, dehydrated, permeabilized, sealed, and inspected under a microscope.
Immunohistochemical staining: After baking, dewaxing, and hydration, paraffin sections of skin tissues of hind limb toes of the mice were subjected to antigen retrieval using a 0.2 M citric acid buffer solution (containing 1.534 g of citric acid, 3.1 g of sodium citrate, and 100 mL of distilled water, pH 4.7). Endogenous […] was removed using 3% hydrogen peroxide (Shandong Annjet High-Tech Disinfection Technology Co., Ltd., article No. 20290902), and the sections were incubated at room temperature for 10 minutes and then fully rinsed with a PBS buffer solution (containing 8 g of NaCl, 0.2 g of KCl, 1.44 g of Na2HPO4, and 1 M HCl, pH 7.4). The sections were permeabilized with 0.5% Triron-X-100 (AmyJet Scientific, article No. A-CSH436-100 mL), respectively permeabilized with mouse anti-IL-1β and rabbit IL-8 for 10 minutes, and not permeabilized with rabbit anti-IL-6. […]

HaCat cells = assay: m6A methylation level of drug-treated HaCat keratinocytes by nanopore sequencing (Example 14); format: cell-based, human; details: 50 nM drug, 24 hours
Method: 1*10^8 HaCat cells were seeded in culture dishes, into which 50 nM drugs (including sorafenib, capecitabine, docetaxel, and osimertinib) were added, respectively. The cells were cultured in an incubator containing 5% CO2 at 37° C. for 24 hours and washed with PBS after culture media were removed. Centrifugation was performed, the supernatant was discarded, and then, 400 μL of an RLT cell lysis buffer (QIAGEN, Cat. #79216) was added. A portion of samples were selected, into which 400 μL of 70% ethanol was added. The mixture was evenly stirred and then transferred to an RNeasy mini column, and RNA was extracted using an RNeasy mini kit (QIAGEN, Cat. #74104). 2 μL of an RNA sample was selected and dissolved in 98 μL of a 10 mM Tris-HCl buffer solution, and the absorbance at 260 nm was measured using a Nanodrop (Thermo Fisher Scientific) to determine the RNA concentration.
40 μg of an RNA sample was selected for enrichment of mRNA (PolyA+RNA) using an NEBNext Poly(A) mRNA magnetic isolation module (NEB, Cat. #E7490), and then, a 3′ end of the above enriched mRNA (PolyA+RNA) molecule was ligated with reverse transcription adapter RTA using a direct RNA sequencing kit (Oxford Nanopore Technologies, Cat. #SQK-RNA002). A reverse transcription reaction was performed with the mRNA (PolyA+RNA) molecule as a template to synthesize a complementary strand, a terminal end of the reverse transcription adapter RTA was ligated with a sequencing adapter (RNA adapter) to form a final sequencing library, and quantitative detection was performed using a Qubit™ dsDNA HS assay kit (Invitrogen, Cat. #LOT2133187).
After quality inspection of the library, the prepared sequencing library was loaded onto a PromethION flow cell chip (Oxford Nanopore Technologies, Cat. #FLO-MIN106D), and placed in a PromethION sequencer (Oxford Nanopore Technologies) for sequencing by selecting a matched sequencing mode. Basecalling was performed on sequencing data through guppy, and m6A methylation analysis was performed on original fast5 data.

Structure (SMILES): NC(=O)[C@H]1CCCc2c1[nH]c1ccc(Cl)cc21 [Compound 2b, (S)-6-chloro-2,3,4,9-tetrahydro-1H-carbazole-1-carboxamide]
- expression level of cytokine IL-8 in skin tissues of hind limb toes [1]: significantly decrease
- thickening of the epidermal layer and the stratum corneum in the skin tissues (pathological staining) [1]: effectively alleviate
- swelling of the toes caused by the modeling drugs [1]: significantly alleviate
- expression level of cytokine IL-6 in skin tissues of hind limb toes [1]: significantly decrease

Structure (SMILES): C=CC(=O)Nc1cc(Nc2nccc(-c3cn(C)c4ccccc34)n2)c(OC)cc1N(C)CCN(C)C [Osimertinib, osimertinib, reference compound]
- m6A methylation level of HaCat cells, increase compared with blank control group (HaCat cells): 5.13 times

Structure (SMILES): NC(=O)c1cccnc1 [Nicotinamide, nicotinamide]
- expression level of cytokine IL-8 in skin tissues of hind limb toes [1]: does not have a significant impact
- thickening of the epidermal layer and the stratum corneum in the skin tissues (pathological staining) [1]: mildly alleviates
- swelling of the toes caused by the modeling drugs [1]: not observed that oral administration of the nicotinamide at 100 mg/kg significantly alleviates the swelling
- expression level of cytokine IL-6 in skin tissues of hind limb toes [1]: does not have a significant impact

Structure (SMILES): CNC(=O)c1cc(Oc2ccc(NC(=O)Nc3ccc(Cl)c(C(F)(F)F)c3)cc2)ccn1 [Sorafenib, sorafenib, reference compound]
- m6A methylation level of HaCat cells, increase compared with blank control group (HaCat cells): 5.05 times
